Read-outs that look alike come from different tables or passages of the source.

39 compounds from patent US7598260B2, “CDK-inhibitory pyrimidines, their production and use as pharmaceutical agents” (Bayer Schering Pharma Aktiengesellschaft, priority 2001, dated 2009) can be followed below.

One data set relates to MCF-7 cells. The experiment in a line: Proliferation assay, crystal violet staining (cell test), MCF-7. The format is cell-based. Particulars: Homo sapiens. Here is the method: (§1) Cultivated human tumor cells (as indicated) are flattened out at a density of 5000 cells/measuring point in a 96-hole multititer plate in 200 μl of the corresponding growth medium. After 24 hours, the cells of one plate (zero-point plate) are colored with crystal violet (see below), while the medium of the other plates is replaced by fresh culture medium (200 μl), to which the test substances are added at various concentrations (0 μm, as well as in the range of 0.01-30 μm; the final concentration of the solvent dimethyl sulfoxide is 0.5%). The cells are incubated for 4 days in the presence of test substances. The cell proliferation is determined by coloring the cells with crystal violet: the cells are fixed by adding 20 μl/measuring point of a 11% glutaric aldehyde solution for 15 minutes at room temperature. After three washing cycles of the fixed cells with water, the plates are dried at room temperature. The cells are colored by adding 100 μl/measuring point of a 0.1% crystal violet solution (pH is set at 3 by adding acetic acid). After three washing cycles of the colored cells with water, the plates are dried at room temperature. The dye is dissolved by adding 100 μl/measuring point of a 10% acetic acid solution. The extinction is determined by photometry at a wavelength of 595 nm. The change of cell growth, in percent, is calculated by standardization of the measured values to the extinction values of the zero-point plate (=0%) and the extinction of the untreated (0 μm) cells (=100%).

Another data set addresses T1, CDK2/CycE (Homo sapiens, UniProt P24941).
T1 construct: GST; purchased Dr. Dieter Marmé, Klinik für Tumorbiologie, Freiburg; host or cells: baculovirus-infected Sf9 insect cells
Briefly: CDK2/CycE kinase assay (enzyme test). Particulars: read-out: Inhibition IC50 [nM] CDK2/CycE. The class given is biochemical. The procedure:
Recombinant CDK2- and CycE-GST-fusion proteins, purified from baculovirus-infected insect cells (Sf9), are obtained by Dr. Dieter Marmé, Klinik für Tumorbiologie [Clinic for Tumor Biology], Freiburg. Histone IIIS, which is used as a kinase substrate, is purchased by the Sigma Company.
The reaction was is stopped by adding EDTA solution (250 mmol, pH 8.0, 14 μl/measuring point).
From each reaction batch, 10 μl applied to P30 filter strips (Wallac Company), and non-incorporated ^33P-ATP is removed by subjecting the filter strips to three washing cycles for 10 minutes each in 0.5% phosphoric acid. After the filter strips are dried for one hour at 70° C., the filter were are covered with scintillator strips (MeltiLex™ A, Wallac Company) and baked for one hour at 90° C. The amount of incorporated ^33P (substrate phosphorylation) is determined by scintillation measurement in a gamma-radiation measuring device (Wallac).

The nature of data set [1]: Solubility (Löslichkeit, g/l). The class given is physicochemical.
Data set [2] has as its system human tumor cells (as indicated). Briefly: Proliferation assay, crystal violet staining, other human tumor cells as indicated in the tables. The class given is cell-based. As to conditions: 4 days incubation. The procedure: as §1
Where [3] appears, read: MCF7, MCF-7 cells, comparison with known compounds, read-out: MCF-7 IC50.
[4] abbreviates: 96 h, MCF7 cells, 4 days incubation, read-out: Proliferation IC50 [μM] MCF7.
Setting [5] is: DU-145, 96 h, DU145 cells, read-out: Proliferation IC50 [μM] DU145.
Setting [6] is: HCT-116, 96 h, HCT116 cells, read-out: Proliferation IC50 [μM] HCT116.
The mark [7] stands for this setting: NCI-H460, 96 h, H460 cells, read-out: Proliferation IC50 [μM] H460.

As for `O=C1Cc2c([nH]c3ccc([N+](=O)[O-])cc23)-c2ccccc2N1` [Alsterpaullone, reference compound], the IC50 in the data set with MCF-7 cells (setting [3]) was 1.2 µM.

For the compound `COC[C@H](C)Nc1nc(Nc2ccc(O)cc2)ncc1Br` [Example 1], the IC50 stood at 300 nM at CDK2/CycE and 8 µM in the data set with MCF-7 cells (setting [4]).

On to `Oc1ccc(Nc2ncc(Br)c(NCCN3CCOCC3)n2)cc1` [Example 2], for which the IC50 on CDK2/CycE amounted to 700 nM.

Turning to `OCC(CO)Nc1nc(Nc2ccc(O)cc2)ncc1Br` [Example 3], the results for the IC50 on CDK2/CycE and in the data set with MCF-7 cells (setting [4]) were 200 nM and 8 µM, respectively. Besides, the “Sw” value in data set [1] turned out to be 0.039 g/L.

For `CC(C)[C@H](CO)Nc1nc(Nc2ccc(O)cc2)ncc1Br` [Example 4], the IC50 at CDK2/CycE was found to be 40 nM; with MCF-7 cells (setting [4]) it was 8 µM. Besides, the “Sw” value in data set [1] was 0.042 g/L.

On to `C#CCNc1nc(Nc2ccc(O)cc2)ncc1Br` [Example 5, 4-[[5-Bromo-4-(2-propynylamino)-2-pyrimidinyl]amino]-phenol], for which the IC50 at CDK2/CycE came out at 90 nM; in the data set on MCF-7 cells (setting [4]) it was 10 µM. In addition, the “Sw” value in data set [1] was found to be 0.043 g/L.

As to `NS(=O)(=O)c1ccc(Nc2ncc(Br)c(NCCN3CCOCC3)n2)cc1` [Example 8], the IC50 on CDK2/CycE was under 10 nM; in the data set on MCF-7 cells (setting [4]) it was 4 µM. Further, the “Sw” value in data set [1] was determined as 0.007 g/L.

As to `CC(C)[C@H](CO)Nc1nc(Nc2ccc(S(N)(=O)=O)cc2)ncc1Br` [Example 10], the IC50 on CDK2/CycE was 4 nM; in the data set on MCF-7 cells (setting [4]), 0.2 µM; in data set [2] (setting [5]) it was 0.5 µM; in data set [2] (setting [6]), 0.5 µM; in data set [2] (setting [7]), 0.5 µM.

As for `C#CCNc1nc(Nc2ccc(S(N)(=O)=O)cc2)ncc1Br` [Example 11], the IC50 came to 6 nM at CDK2/CycE; 0.2 µM in the data set with MCF-7 cells (setting [4]); 0.2 µM in the data set on MCF-7 cells (setting [3]); 0.2 µM in data set [2] (setting [5]); 0.3 µM in data set [2] (setting [6]); 0.5 µM in data set [2] (setting [7]).

For the compound `COC[C@H](C)Nc1nc(Nc2ccc(SC)cc2)ncc1Br` [Example 12], the results for the IC50 on CDK2/CycE and in the data set on MCF-7 cells (setting [4]) were 400 nM and 4 µM, respectively.

As to `CSc1ccc(Nc2ncc(Br)c(NCCN3CCOCC3)n2)cc1` [Example 13], the IC50 at CDK2/CycE was 2000 nM; in the data set on MCF-7 cells (setting [4]), over 10 µM.

In the case of `CSc1ccc(Nc2ncc(Br)c(NC(CO)CO)n2)cc1` [Example 14], the IC50 was 200 nM at CDK2/CycE and 3 µM with MCF-7 cells (setting [4]). The “Sw” value in data set [1] was 0.013 g/L.

For `CSc1ccc(Nc2ncc(Br)c(N[C@@H](CO)C(C)C)n2)cc1` [Example 15], the values for the IC50 at CDK2/CycE and in the data set with MCF-7 cells (setting [4]) were 300 nM and over 10 µM, respectively. For the same compound, the “Sw” value in data set [1] came out at 0.024 g/L.

On to `C#CCNc1nc(Nc2ccc(SC)cc2)ncc1Br` [Example 16, 5-Bromo-N2-(4-methylthiophenyl)-N4-2-propynyl-2,4-pyrimidine diamine], for which the IC50 on CDK2/CycE was 300 nM; in the data set with MCF-7 cells (setting [4]) it was 3 µM.

As for `COC[C@H](C)Nc1nc(Nc2cccc(S(=O)(=O)CCO)c2)ncc1Br` [Example 17], the results for the IC50 on CDK2/CycE and in the data set with MCF-7 cells (setting [4]) were 1000 nM and over 10 µM, respectively. Also, the “Sw” value in data set [1] worked out at 0.04 g/L.

In the case of `O=S(=O)(CCO)c1cccc(Nc2ncc(Br)c(NCCN3CCOCC3)n2)c1` [Example 18], the IC50 at CDK2/CycE turned out to be 2000 nM. Also, the “Sw” value in data set [1] is 0.039 g/L.

As for `O=S(=O)(CCO)c1cccc(Nc2ncc(Br)c(NC(CO)CO)n2)c1` [Example 19], the IC50 on CDK2/CycE was 800 nM; in the data set with MCF-7 cells (setting [4]) it was over 10 µM. Also, the “Sw” value in data set [1] came out at 0.041 g/L.

As to `C#CCOc1nc(Nc2cccc(O)c2)ncc1Br` [Example 20], the values for the IC50 at CDK2/CycE and with MCF-7 cells (setting [4]) were 60 nM and 4 µM, respectively.

Turning to `C#CCNc1nc(Nc2cccc(S(=O)(=O)CCO)c2)ncc1Br` [Example 21], the IC50 on CDK2/CycE was 400 nM; in the data set on MCF-7 cells (setting [4]) it was 2 µM.

On to `C#CCNc1nc(Nc2ccc(SC(F)F)cc2)ncc1Br` [Example 23, 5-Bromo-N2-(4-difluoromethylthiophenyl)-N4-2-propynyl-2,4-pyrimidine diamine], for which the results for the IC50 at CDK2/CycE and in the data set with MCF-7 cells (setting [4]) were 180 nM and 3 µM, respectively.

For `C#CCNc1nc(Nc2ccc(SC(F)(F)F)cc2)ncc1Br` [Example 24, 5-Bromo-N4-2-propynyl-N2-(4-trifluoromethylthiophenyl)-2,4-pyrimidine diamine], the values for the IC50 at CDK2/CycE and in the data set with MCF-7 cells (setting [4]) were 400 nM and 5 µM, respectively.

As to `C#CCNc1nc(Nc2cccc(SC)c2)ncc1Br` [Example 26], the IC50 was found to be 300 nM at CDK2/CycE and 3 µM in the data set with MCF-7 cells (setting [4]).

Turning to `C#CCNc1nc(Nc2cccc(S(=O)(=O)C(F)(F)F)c2)ncc1Br` [Example 27], the IC50 at CDK2/CycE was over 10000 nM.

Consider `C#CCNc1nc(Nc2ccc(CP(=O)(OCC)OCC)cc2)ncc1Br` [Example 31], for which the IC50 stood at 800 nM at CDK2/CycE and 7 µM in the data set with MCF-7 cells (setting [4]). In addition, in data set [1], the “Sw” value turned out to be 0.0023 g/L.

For the compound `C#CCNc1nc(Nc2cccc(S(=O)(=O)NCCCC)c2)ncc1Br` [Example 34], the IC50 at CDK2/CycE turned out to be 1800 nM.

Regarding `C#CCNc1nc(Nc2cccc(SC(F)(F)F)c2)ncc1Br` [Example 35, 5-Bromo-N4-2-propynyl-N2-(3-trifluoromethylthiophenyl)-2,4-pyrimidine diamine], the IC50 is 120 nM at CDK2/CycE and over 10 µM in the data set with MCF-7 cells (setting [4]).

`C#CCNc1nc(Nc2ccc3scnc3c2)ncc1Br` [Example 38, N-[5-Bromo-4-(2-propynylamino)-2-pyrimidinyl]-benzothiazole-5-amine]: the IC50 on CDK2/CycE is 80 nM; with MCF-7 cells (setting [4]), over 10 µM.

In the case of `C#CCNc1nc(Nc2ccc3c(c2)CCN3S(C)(=O)=O)ncc1Br` [Example 39], the IC50 at CDK2/CycE is 300 nM. In data set [1], the “Sw” value stood at 0.0016 g/L.

`NS(=O)(=O)c1ccc(Nc2ncc(Br)c(OCCCC(F)(F)F)n2)cc1` [Example 47]: the IC50 on CDK2/CycE was found to be 12 nM; in the data set on MCF-7 cells (setting [4]) it was 0.7 µM; in data set [2] (setting [5]), 0.9 µM; in data set [2] (setting [6]) it was 1.3 µM; in data set [2] (setting [7]), 1.8 µM.

For the compound `C#CCNc1nc(Nc2ccc(C(C)=O)cc2)ncc1Br` [Example 50, 1-[4-[(5-Bromo-4-(2-propynylamino)-2-pyrimidinyl)amino]phenyl]-ethanone], the IC50 at CDK2/CycE was determined as 150 nM.

For the compound `C#CCOc1nc(Nc2cccc(OCC3CO3)c2)ncc1Br` (centres unmarked) [Example 51], the IC50 at CDK2/CycE was 70 nM; in the data set with MCF-7 cells (setting [4]), 8 µM.

Consider `CC(=O)c1ccc(Nc2ncc(Br)c(OCCCC(F)(F)F)n2)cc1` [Example 84], for which the IC50 on CDK2/CycE stood at 400 nM. Besides, in data set [1], the “Sw” value is 0.0005 g/L.

On to `CCOC(=O)CCCNc1nc(Nc2ccc(C(C)=O)cc2)ncc1Br` [Example 85], for which the IC50 on CDK2/CycE is 2000 nM. Also, the “Sw” value in data set [1] amounted to 0.001 g/L.

On to `CCOCCOCCOc1nc(Nc2ccc(C(C)=O)cc2)ncc1Br` [Example 86], for which, at CDK2/CycE, the IC50 stood at 3000 nM.

As to `C#CCOc1nc(Nc2ccc(OCC(O)CN3CCN(Cc4ccc5c(c4)OCO5)CC3)cc2)ncc1Br` (centres unmarked) [Example 96], the IC50 at CDK2/CycE came out at 400 nM.

In the case of `C#CCOc1nc(Nc2ccc(OCC(O)CN3CCN(c4ccccc4C#N)CC3)cc2)ncc1Br` (centres unmarked) [Example 98], the IC50 on CDK2/CycE came to 2000 nM.

`O=C1Cc2c([nH]c3ccc(Br)cc23)-c2ccccc2N1` [Kenpaullone, reference compound]: in the data set with MCF-7 cells (setting [3]), the IC50 stood at 6 µM.

As for `Cn1cnc2c(NCc3ccccc3)nc(NCCO)nc21` [Olomoucine, reference compound], in the data set with MCF-7 cells (setting [3]), the IC50 was 30 µM.

`CC(C)[C@H](CO)Nc1nc(Nc2cccc(Cl)c2)c2ncn(C(C)C)c2n1` [Purvalanol A, reference compound]: in the data set on MCF-7 cells (setting [3]), the IC50 was found to be 2 µM.
